1 molecule from patent US6897065B1, “Method for maturation of conifer somatic embryos” (Woody Plant Biotech APS, priority 1999, dated 2005) can be followed below.

Common to all, as to format: cell-based
The subject of assay [1] is Abies nordmanniana cell line G.3.8. In words: Maturation of established Abies nordmanniana cell line G.3.8 (fast proliferating). From the text:
(§1) Three different cell lines of Abies nordmanniana were used in the present study. The tested cell lines have been in continuous culture for several years. The cell line G.3.8 was initiated from an immature zygotic embryo in 1989 on half strength MS medium (Murashige and Skoog, 1962) as described previously (Nørgaard and Krogstrup, 1991), Cell line G.35.8 was initiated from a mature zygotic embryo on SH medium in 1991 (Nørgaard and Krogstrup, 1995), and cell line G.78.14 was initiated in 1993 from an immature zygotic embryo on modified half strength BLG medium (Verhagen and Wann, 1989). From 1996, all cultures were maintained by biweekly subculture onto fresh half strength modified BLG medium and grown at 24+/−1° C. in the dark. Cell lines G.3.8 and G.78.14 proliferated fast on maintenance medium with a doubling time of the weight shorter than 2 weeks. Cell line G.35.8 proliferated relatively slowly with a doubling time of the weight higher than 2 weeks.
(§2) The standard maturation medium (the control) is modified from the half strength BLG proliferation medium mentioned above. […] The choice of these three culture medium components is determined primarily by the conifer species in question. […] Similarly it is known that addition of PEG-4000 improves maturation. Still it may be possible to obtain just as good results with other combinations of these components and also by using other components with equivalent effects.
(§3) In this experiment, the standard maturation medium was modified by excluding PEG and by including one of the following 3 chemicals, that are traditionally expected to affect the endogenous concentration of the naturally occurring auxin IAA or to affect the normal effect of auxin in plant cells: 1) PCIB (auxin-antagonist) in a concentration of 25 or 117 μM, 2) TIBA (auxin transport inhibitor) in a concentration of 5 or 50 μM, 3) phlouroglucinol: (inhibitor of auxin degradation) (see George 1993, page 429 bottom-430) in a concentration of 30 mM. In addition to these modifications the standard maturation medium was modified by: 4) reducing the concentration of boron (precursor of indole acetic acid synthesis) to 10 μM, i.e. 20% of the normal concentration and finally by 5) including 25 μM PCIB in medium with no ABA.
(§4) The cultures were matured in the dark at 24° C.+/−1° C.
Two weeks after the last subculture, 4 grams of embryogenic cells was transferred to a 250 mL Flask (Blue cap) together with a magnet stirrer. 100 mL of liquid proliferation medium was added, and the suspension was stirred for 5 minutes at high speed on a magnet stirrer to obtain a homogenous suspension of cells and cell clumps. The culture was then pre-cultured on a gyrotory shaker (120 rpm) for one week at 24+/−1° C. in the dark. […]

Assay [2] deals with Abies nordmanniana cell line G.35.8. Nature of the assay: Maturation of established Abies nordmanniana cell line G.35.8 (slowly proliferating).
Source text: as §1
The standard maturation medium (the control) is modified from the half strength BLG proliferation medium mentioned above. […] The choice of these three culture medium components is determined primarily by the conifer species in question. […] Similarly it is known that addition of PEG-4000 improves maturation. […]

Assay [3] concerns embryogenic cell lines of Abies nordmanniana. In words: Maturation of the tested established Abies nordmanniana embryogenic cell lines (G.3.8, G.35.8, G.78.14).
Source text: as §1, §2, §3, §4
Two weeks after the last subculture, 4 grams of embryogenic cells was transferred to a 250 mL Flask (Blue cap) together with a magnet stirrer. 100 mL of liquid proliferation medium was added, and the suspension was stirred for 5 minutes at high speed on a magnet stirrer to obtain a homogenous suspension of cells and cell clumps. The culture was then pre-cultured on a gyrotory shaker (120 rpm) for one week at 24+/−1° C. in the dark. Following the pre-culture, the culture was stirred again on a magnet stirrer at high speed for 5 minutes. The culture was transferred to a 100 mL measuring cylinder and allowed to settle for 30 min. The supernatant was discharged and from the remaining culture aliquots of 1 mL were transferred with a cut pipette tip onto filter paper (Whatmann #2) placed on 25 mL of maturation medium in 10 cm Petri dishes (Nunc, Denmark). The filters containing the maturing somatic cultures were transferred onto fresh medium every 2 weeks.
FIG. 5 discloses maturation of cell line G.78.14. This cell line proliferates rapidly and produces very few normal mature embryos according to prior methods. The cell line was matured for 20 weeks on medium comprising 40 μM ABA and a) 25 μM PCIB, b) 0.4 mM phloroglucinol, or c) reduced concentration of Boron (20% of normal concentration). For control see FIG. 1a or 2a.
FIG. 6 discloses maturation of cell line G.78.14 for 20 weeks on maturation medium comprising 40 μM ABA and a) 2.5 mg/L TIBA (5 μM), or b) 25 mg/L TIBA (50 μM).

The test system of assay [4] is Picea abies embryogenic cell lines D.2.9, D.4.1, D.7.1. In words: Maturation in embryogenic cultures of Picea abies. The protocol:
Three embryogenic cell lines, D.2.9, D.4.1, D.7.1, of Picea abies, initiated from immature seeds in 1989 and kept in cryostorage until 1998 as described by Nørgaard et al (1993) were used for the present experiment. The cultures were maintained on semi-solid proliferation medium BMI-S1 (Krogstrup 1986) gelled with 1.8 g/L gelrite by biweekly sub-cultures. Prior to transfer to maturation medium, 4 grams of cell mass from each cell line was weighed off and transferred to 50 ml liquid proliferation medium in a 250 ml Erlenmeyer flask. The flask also contained a sterile magnet.
To disintegrate the cultures they were stirred for 5 minutes using a magnet stirrer. Then the flasks were shaken for 15 minutes on a rotary shaker at 175 rpm. The medium with suspended cell aggregates were subsequently poured into a 100 ml measuring cylinder and allowed to settle for 30 minutes. The supernatant was discarded and aliquots of 1 ml of cells were plated on sterile Whatman #54 paper discs placed an the various maturation media. Three replicate dishes were made for each combination of cell line and treatment.
Five maturation protocols were tested. • A: Maturation on BMG-1 medium (Krogstrup et al 1988) modified by increasing the ABA concentration to 40 μM. • B: As A, but from week 2 to week 4 maturation on culture medium comprising 2.5 μM PCIB and 40 μM ABA. • C: As A, but from week 2 to week 4 maturation on culture medium comprising 5.0 μM PCIB and 40 μM ABA. • D: Maturation on medium comprising 2.5 μM PCIB and 40 μM ABA. • E: Maturation an medium comprising 5.0 μM PCIB and 40 μM ABA. Results

The mark [5] stands for this setting: 25 μM PCIB + 40 μM ABA from week 4 to 8 of the 20 week maturation period.
Setting [6] is: medium including both ABA and 25 μM PCIB.

Take `CC(C)(Oc1ccc(Cl)cc1)C(=O)O` [PCIB, p-Chlorophenoxyisobutyric acid]: in assay [1] (25 μM PCIB + 40 μM ABA during the entire 20 week maturation period), the “number of well-formed mature embryos” value is given as “about 125 embryos per Petri dish”. Also, the “number of well formed mature embryos” value is listed as “about 40 embryos per Petri dish” in assay [1] (setting [5]), “about 15 embryos per Petri dish” in assay [2] (25 μM PCIB + 40 μM ABA during the entire maturation period) and “about 250 embryos per Petri dish” in assay [2] (setting [5]). Also, the proliferation during maturation entry in assay [1] (25 μM PCIB during the entire maturation period) was “strongly reduced”; in assay [1] (25 μM PCIB from week 4 to 8 of the 20 week maturation period) it was “reduced slightly”; in assay [3] (25 μM PCIB, ABA excluded) it was “proliferation was reduced”; in assay [3] (setting [6]) it was “proliferation was reduced”; in assay [4] (cell lines D.4.1 and D.7.1, 2.5 or 5.0 μM PCIB + 40 μM ABA), “reduce the proliferation during maturation”. Besides, in assay [3] (25 μM PCIB, ABA excluded, 20 weeks, all tested cell lines), the “development of mature embryos” value was “only few and clearly abnormal and precociously germinating embryos were developed”. Further, the “embryo morphology (abnormality)” value was “the embryos developed asymmetrically with one major and one minor cotyledon (FIG. 4C) or with only one cotyledon” in assay [3] (higher concentrations than 25 μM of PCIB); “embryos with only two symmetric cotyledons developed” in assay [3] (slowly proliferating cell lines, ABA and 25 μM PCIB for longer periods than 4 weeks). Further, in assay [3] (setting [6]), the “development of embryos during maturation” value is given as “high numbers of embryos developed”. In addition, the “production of mature somatic embryos” value in assay [4] (cell line D.2.9, anti-auxin step (2.5 or 5.0 μM PCIB + 40 μM ABA)) is listed as “a high number of mature somatic embryos are in turn produced”. The “number of somatic embryos compared with no anti-auxin step” value in assay [4] (cell lines D.4.1 and D.7.1 (A-type), 2.5 or 5.0 μM PCIB + 40 μM ABA) was “produced higher numbers of somatic embryos”.
